The source made the active and inactive calls.
Assays:
[1] = molecular target: T1, Apoptotic protease-activating factor 1 (Homo sapiens, UniProt O14727); assay: SAR analysis of small molecule Activators of Apaf-1 in a Fluorescent assay.; assay type: functional; details: read-out: EC50_Mean;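 further: caspase-3 cleavage of fluorogenic Rh110 DEVD substrate downstream of apoptosome activation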
T1 sequence (O14727 whole entry): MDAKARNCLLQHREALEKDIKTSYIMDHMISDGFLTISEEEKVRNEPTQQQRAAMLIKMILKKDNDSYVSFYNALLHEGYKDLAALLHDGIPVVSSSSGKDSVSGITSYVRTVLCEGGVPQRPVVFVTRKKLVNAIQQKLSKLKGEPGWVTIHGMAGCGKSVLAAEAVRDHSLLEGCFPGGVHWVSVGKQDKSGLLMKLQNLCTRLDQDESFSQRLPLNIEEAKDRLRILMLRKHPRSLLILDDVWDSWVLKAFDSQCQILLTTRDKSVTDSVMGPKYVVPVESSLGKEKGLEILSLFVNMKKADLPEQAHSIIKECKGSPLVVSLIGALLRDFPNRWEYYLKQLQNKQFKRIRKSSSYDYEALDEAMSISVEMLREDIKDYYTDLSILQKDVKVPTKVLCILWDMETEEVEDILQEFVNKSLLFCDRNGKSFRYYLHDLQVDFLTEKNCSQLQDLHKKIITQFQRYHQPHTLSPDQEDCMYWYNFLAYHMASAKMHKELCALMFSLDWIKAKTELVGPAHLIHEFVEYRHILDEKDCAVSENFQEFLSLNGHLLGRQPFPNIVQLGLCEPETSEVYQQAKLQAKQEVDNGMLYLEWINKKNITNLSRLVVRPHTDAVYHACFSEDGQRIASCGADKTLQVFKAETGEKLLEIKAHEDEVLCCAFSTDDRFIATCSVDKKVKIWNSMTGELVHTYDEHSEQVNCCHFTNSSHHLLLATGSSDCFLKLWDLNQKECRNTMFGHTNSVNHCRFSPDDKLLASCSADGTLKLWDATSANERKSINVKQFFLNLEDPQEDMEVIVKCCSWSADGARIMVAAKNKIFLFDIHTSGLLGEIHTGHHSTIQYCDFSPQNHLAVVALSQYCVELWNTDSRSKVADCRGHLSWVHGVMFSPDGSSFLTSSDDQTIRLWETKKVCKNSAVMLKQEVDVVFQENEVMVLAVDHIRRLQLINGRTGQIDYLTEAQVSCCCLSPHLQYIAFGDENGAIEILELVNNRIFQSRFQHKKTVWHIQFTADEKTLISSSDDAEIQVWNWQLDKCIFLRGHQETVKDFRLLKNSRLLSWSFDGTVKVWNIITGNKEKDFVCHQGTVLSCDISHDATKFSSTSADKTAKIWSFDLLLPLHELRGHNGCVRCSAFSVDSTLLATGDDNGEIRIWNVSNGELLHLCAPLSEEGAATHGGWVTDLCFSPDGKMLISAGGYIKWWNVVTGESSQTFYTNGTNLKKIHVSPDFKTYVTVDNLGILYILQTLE

Protein skinhead-1 = molecular target: T2, Protein skinhead-1 (Caenorhabditis elegans, UniProt P34707); assay type: functional
T2 sequence (P34707 whole entry): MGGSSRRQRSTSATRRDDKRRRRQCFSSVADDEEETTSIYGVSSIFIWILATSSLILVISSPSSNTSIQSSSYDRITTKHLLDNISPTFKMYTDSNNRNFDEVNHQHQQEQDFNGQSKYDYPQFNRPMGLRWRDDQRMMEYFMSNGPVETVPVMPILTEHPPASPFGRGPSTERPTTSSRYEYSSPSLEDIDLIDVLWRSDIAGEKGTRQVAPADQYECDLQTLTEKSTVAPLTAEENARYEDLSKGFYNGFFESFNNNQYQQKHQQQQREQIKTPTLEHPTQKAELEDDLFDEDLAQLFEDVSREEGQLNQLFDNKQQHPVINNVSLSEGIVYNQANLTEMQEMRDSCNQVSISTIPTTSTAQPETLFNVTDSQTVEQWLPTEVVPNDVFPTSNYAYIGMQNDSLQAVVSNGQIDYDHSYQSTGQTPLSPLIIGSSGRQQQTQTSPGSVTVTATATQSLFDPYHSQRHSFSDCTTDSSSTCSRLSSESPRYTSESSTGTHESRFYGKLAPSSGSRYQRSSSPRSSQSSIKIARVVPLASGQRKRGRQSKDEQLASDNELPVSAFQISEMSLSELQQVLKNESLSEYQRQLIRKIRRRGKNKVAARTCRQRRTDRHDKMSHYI

[2] = C. albicans growth with fluconazole, confirmation, fluorescence, retest (AID 2467); assay type: functional, cell-based
[3] = molecular target: ATP-dependent molecular chaperone HSP82 (Candida albicans (strain WO-1) (Yeast), UniProt C4YTQ8); assay: loss of DOC-induced GRE-beta-galactosidase reporter signal, dose response, Hsp90 inhibitor project, S. cerevisiae, luminescence (AID 2400); assay type: functional, cell-based;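 further: beta-galactosidase luminescence from glucocorticoid response element reporter as proxy for Hsp90 function; inhibitor potency where signal loss means Hsp90 inhibition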
ATP-dependent molecular chaperone HSP82, sequence (C4YTQ8 whole entry): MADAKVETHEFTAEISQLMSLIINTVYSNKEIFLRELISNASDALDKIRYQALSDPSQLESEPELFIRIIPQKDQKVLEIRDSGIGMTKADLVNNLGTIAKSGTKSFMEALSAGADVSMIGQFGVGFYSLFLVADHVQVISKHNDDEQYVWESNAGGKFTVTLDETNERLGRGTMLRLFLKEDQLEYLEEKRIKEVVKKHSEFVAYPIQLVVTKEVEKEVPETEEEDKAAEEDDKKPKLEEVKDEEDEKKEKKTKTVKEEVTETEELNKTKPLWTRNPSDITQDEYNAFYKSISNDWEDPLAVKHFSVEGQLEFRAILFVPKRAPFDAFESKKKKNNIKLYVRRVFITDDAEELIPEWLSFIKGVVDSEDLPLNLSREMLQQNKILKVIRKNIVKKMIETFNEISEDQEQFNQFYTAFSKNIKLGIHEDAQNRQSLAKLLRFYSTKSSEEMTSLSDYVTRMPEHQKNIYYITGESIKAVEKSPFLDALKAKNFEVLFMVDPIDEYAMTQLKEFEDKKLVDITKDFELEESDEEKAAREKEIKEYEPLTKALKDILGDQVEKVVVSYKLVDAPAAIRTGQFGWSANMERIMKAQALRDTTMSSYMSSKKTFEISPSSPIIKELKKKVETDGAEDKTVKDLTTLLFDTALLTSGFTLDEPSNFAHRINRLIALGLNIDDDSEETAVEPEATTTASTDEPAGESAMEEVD

INS1 = assay: beta cell apoptosis inhibitors, cytokine rescue, dose response, luminescence, retest (AID 449756); assay type: functional, cell-based; details: Rattus norvegicus;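 further: cell death triggered by IL-1 beta plus TNF-alpha plus IFN-gamma mixture; protective hits raise ATP signal compared with cytokine alone wells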
[4] = molecular target: T3, Serine/threonine-protein phosphatase (Candida dubliniensis (strain CD36 / CBS 7987 / NCPF 3949 / NRRLY-17841) (Yeast), UniProt B9W6M3); assay: calcineurin pathway inhibitors in yeast reporter, dose response, S. cerevisiae, CDRE-lacZ, luminescence, secondary (AID 2388); assay type: functional, cell-based;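 further: yeast reporter cells carrying a calcineurin-responsive lacZ construct stimulated with calcium chloride; luminescent beta-galactosidase reporter signal in whole cells rather than isolated phosphatase activity; potency for inhibition where a drop in reporter signal means calcineurin blockade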
T3 sequence (B9W6M3 whole entry): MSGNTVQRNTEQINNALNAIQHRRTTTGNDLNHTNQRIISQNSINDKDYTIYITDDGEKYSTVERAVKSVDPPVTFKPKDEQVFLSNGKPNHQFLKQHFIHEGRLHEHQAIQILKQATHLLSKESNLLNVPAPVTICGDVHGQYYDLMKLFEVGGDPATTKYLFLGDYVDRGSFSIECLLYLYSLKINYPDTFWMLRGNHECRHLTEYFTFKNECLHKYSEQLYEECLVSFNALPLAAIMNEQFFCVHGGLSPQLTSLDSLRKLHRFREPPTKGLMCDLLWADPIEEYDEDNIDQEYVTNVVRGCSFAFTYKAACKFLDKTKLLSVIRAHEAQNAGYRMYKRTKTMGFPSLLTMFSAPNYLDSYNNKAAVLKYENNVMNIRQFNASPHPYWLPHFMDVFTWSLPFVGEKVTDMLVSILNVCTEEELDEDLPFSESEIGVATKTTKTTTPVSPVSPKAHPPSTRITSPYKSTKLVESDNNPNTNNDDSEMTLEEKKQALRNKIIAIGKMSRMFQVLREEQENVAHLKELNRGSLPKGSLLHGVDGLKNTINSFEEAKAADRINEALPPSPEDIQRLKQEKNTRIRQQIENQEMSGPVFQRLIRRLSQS

[5] = NIH-3T3 fibroblast cytotoxicity, dose response, cytotoxicity control, cell-based, fluorescence, Alamar Blue, secondary assay (AID 2327); assay type: functional;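 further: NIH-3T3 mouse fibroblasts cultured with fluconazole at 8 µg/mL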
[6] = molecular target: T4, High affinity choline transporter 1 (Homo sapiens, UniProt Q9GZV3); assay: CHT inhibitors, dose response, cell-based, 5-point CRC, membrane potential dye (AID 504840); assay type: functional
T4 sequence (Q9GZV3 whole entry): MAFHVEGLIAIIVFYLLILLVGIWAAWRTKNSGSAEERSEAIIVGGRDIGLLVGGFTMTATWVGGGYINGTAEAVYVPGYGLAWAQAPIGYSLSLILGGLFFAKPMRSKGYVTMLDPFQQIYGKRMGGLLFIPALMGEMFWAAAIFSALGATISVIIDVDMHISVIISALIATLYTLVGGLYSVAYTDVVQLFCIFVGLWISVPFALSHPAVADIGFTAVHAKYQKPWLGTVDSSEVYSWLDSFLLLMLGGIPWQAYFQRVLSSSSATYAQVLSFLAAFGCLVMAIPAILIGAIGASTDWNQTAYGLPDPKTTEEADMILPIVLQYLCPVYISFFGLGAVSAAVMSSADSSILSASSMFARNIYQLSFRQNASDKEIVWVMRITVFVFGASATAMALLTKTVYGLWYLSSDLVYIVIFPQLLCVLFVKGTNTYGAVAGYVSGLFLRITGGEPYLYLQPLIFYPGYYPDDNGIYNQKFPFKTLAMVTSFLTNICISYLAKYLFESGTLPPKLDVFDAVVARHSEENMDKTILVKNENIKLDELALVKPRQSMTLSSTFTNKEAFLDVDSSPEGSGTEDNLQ

[7] = molecular target: T4, High affinity choline transporter 1; assay: CHT inhibitors, dose response, cell-based, 10-point CRC, membrane potential dye (AID 588401); assay type: functional;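 further: membrane potential dye fluorescence of choline-evoked depolarization via CHT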
Vero = Vero cell cytotoxicity, cytotoxicity control for flavivirus capping enzyme inhibitors (AID 588742); assay type: functional; details: Chlorocebus sabaeus
Beta-galactosidase = Beta-galactosidase (Escherichia coli, UniProt Q8VNN2); assay: PubChem AID 485352; assay type: functional
Beta-galactosidase, sequence (Q8VNN2 whole entry): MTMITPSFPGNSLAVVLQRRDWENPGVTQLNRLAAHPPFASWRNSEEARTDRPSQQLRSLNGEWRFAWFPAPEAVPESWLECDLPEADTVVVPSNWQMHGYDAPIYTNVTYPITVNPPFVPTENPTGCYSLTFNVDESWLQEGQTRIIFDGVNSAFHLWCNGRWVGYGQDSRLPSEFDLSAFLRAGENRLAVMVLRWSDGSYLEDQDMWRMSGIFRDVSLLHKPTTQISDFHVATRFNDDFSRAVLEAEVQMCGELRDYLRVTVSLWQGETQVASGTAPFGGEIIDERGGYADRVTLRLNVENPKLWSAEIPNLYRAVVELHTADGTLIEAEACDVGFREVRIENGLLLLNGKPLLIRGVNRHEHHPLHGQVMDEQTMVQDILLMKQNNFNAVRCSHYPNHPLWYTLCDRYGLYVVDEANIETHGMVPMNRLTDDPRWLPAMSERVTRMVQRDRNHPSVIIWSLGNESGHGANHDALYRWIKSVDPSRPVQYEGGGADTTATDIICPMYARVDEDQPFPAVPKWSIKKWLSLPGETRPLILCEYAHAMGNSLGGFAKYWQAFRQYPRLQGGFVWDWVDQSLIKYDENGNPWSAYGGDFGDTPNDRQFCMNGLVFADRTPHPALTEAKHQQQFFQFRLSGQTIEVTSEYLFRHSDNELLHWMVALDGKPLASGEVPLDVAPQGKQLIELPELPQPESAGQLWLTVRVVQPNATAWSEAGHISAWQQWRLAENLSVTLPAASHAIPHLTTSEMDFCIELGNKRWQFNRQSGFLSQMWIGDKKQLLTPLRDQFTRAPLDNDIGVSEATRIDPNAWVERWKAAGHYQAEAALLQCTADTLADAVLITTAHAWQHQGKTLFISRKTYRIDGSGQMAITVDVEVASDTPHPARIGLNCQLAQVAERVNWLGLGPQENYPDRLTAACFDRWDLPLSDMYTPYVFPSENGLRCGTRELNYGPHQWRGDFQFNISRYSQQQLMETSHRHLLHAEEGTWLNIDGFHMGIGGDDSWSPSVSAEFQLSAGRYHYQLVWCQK

[8] = molecular target: T5, Type-1 angiotensin II receptor (Homo sapiens, UniProt P30556); assay: AT1 receptor antagonists, dose response, selectivity assay for APJ receptor antagonist project, cell-based, uHTS hits (AID 463214); assay type: functional;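 further: antagonist potency against angiotensin II stimulated AT1 response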
T5 sequence (P30556 whole entry): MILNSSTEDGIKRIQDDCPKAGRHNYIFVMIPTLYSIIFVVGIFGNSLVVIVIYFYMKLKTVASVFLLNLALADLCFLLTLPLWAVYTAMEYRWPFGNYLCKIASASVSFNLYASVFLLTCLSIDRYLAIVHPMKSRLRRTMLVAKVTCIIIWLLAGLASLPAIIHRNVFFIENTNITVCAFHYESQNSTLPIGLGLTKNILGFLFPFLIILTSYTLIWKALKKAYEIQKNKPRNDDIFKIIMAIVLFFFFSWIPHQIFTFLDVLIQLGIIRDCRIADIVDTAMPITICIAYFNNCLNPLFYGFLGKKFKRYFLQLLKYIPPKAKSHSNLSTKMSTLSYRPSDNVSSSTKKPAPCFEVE

A-375 [9] = assay: MITF: Counter assay: A375 proliferation Measured in Cell-Based System Using Plate Reader - 2084-03_Inhibitor_Dose_DryPowder_Activity. [Related pubchem assays (depositor defined):AID488944]; assay type: functional; details: Homo sapiens
A-375 [10] = assay: A375 melanoma cell viability reduction, dose response, counter-screen for MITF modulator project, cherry-pick samples, set 2 (AID 540335); assay type: functional, cell-based; details: Homo sapiens
Orexin receptor type 2 [11] = molecular target: T6, Orexin receptor type 2 (Homo sapiens, UniProt O43614); assay: Counterscreen assay for antagonists of the orexin 1 receptor (OX1R; HCRTR1): Fluorescence-based cell-based dose response assay for antagonists of the orexin 2 receptor (OX2R; HCRTR2), run by assay provider.; assay type: functional
T6 sequence (O43614 whole entry): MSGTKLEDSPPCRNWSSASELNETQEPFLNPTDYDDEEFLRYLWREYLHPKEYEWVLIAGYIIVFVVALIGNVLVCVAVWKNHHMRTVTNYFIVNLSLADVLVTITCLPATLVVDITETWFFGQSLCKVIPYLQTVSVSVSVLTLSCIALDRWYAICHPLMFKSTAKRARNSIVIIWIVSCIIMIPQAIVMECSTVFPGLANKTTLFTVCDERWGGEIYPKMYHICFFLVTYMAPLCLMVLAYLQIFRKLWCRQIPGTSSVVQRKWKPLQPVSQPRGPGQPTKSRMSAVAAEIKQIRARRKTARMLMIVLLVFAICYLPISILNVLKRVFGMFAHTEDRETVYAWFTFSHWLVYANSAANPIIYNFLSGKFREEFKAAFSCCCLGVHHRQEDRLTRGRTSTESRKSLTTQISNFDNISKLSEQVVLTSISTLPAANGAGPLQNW

Orexin receptor type 2 [12] = molecular target: T6, Orexin receptor type 2; assay: Counterscreen assay for antagonists of the orexin 1 receptor (OX1R; HCRTR1): Homogeneous Time Resolved Fluorescence (HTRF)-based cell-based dose response assay for antagonists of the orexin 2 receptor (OX2R; HCRTR2), run by assay provider.; assay type: functional
[13] = microbe, parasite or virus in culture; assay type: functional; details: Mycobacterium tuberculosis

## Cc1nc(C(F)(F)F)ccc1C(=O)Nc1nc2ccsc2c(=O)s1
[1]
  EC50: > 100 µM (inactive)

## COc1cccc(COc2cc3ccccc3nc2C)c1
Protein skinhead-1
  IC50: 80.1 µM (inactive)
[2]
  EC50: 0.914 µM (active)
[3]
  EC50: > 160 µM (inactive)
INS1
  AC50: 2.61 µM (active)
[4]
  EC50: > 180 µM (inactive)
[5]
  EC50: > 150 µM (inconclusive)

## COc1ccc(NS(=O)(=O)c2ccc(NC(=O)c3ccccc3Br)cc2)nn1
[6]
  IC50: 10.3 µM (active)
[7]
  IC50: 5.01 µM (active)

## COc1ccc(CC2=C(O)C(=O)c3ccccc3C2=O)cc1
Vero
  CC50: > 40 µM (active)

## COc1ccc(CN2CCN(C(C)C)C(CCO)C2)cc1Cn1cccn1 (stereo not given)
[6]
  IC50: 3.31 µM (active)
[7]
  IC50: 1.41 µM (active)

## O=C(COC(=O)c1ccncc1)c1ccc(Cl)c(Cl)c1
Beta-galactosidase
  EC50: > 40 µM (inactive)
[8]
  IC50: 15 µM (active)

## Cc1ccc(C(=O)COC(=O)CNS(=O)(=O)c2ccccc2)cc1[N+](=O)[O-]
Beta-galactosidase
  EC50: > 40 µM (inactive)
[8]
  IC50: 33 µM (not active)

## O=C(Nc1nc2ccsc2c(=O)s1)C1CCC1
A-375 [9]
  AC50: > 35 µM (active)
A-375 [10]
  AC50: > 35 µM (active)
[1]
  EC50: > 100 µM (inactive)

## O=C(NC1CCCCCCC1)c1ccc(CNc2c(N3CCOCC3)c(=O)c2=O)cc1
[6]
  IC50: 0.875 µM (active)
[7]
  IC50: 2.01 µM (active)

## CCOc1ccccc1C(=O)NCCCCNC(=O)c1ccccc1OCC
Orexin receptor type 2 [11]
  IC50: > 88.8 µM (inactive)
Orexin receptor type 2 [12]
  IC50: > 50 µM (inactive)

## Cc1sc2nc3c4ccccc4c(NCc4ccco4)nn3c(=O)c2c1C
Vero
  CC50: > 40 µM (active)
[13]
  CC50: 37.6 µM (active)
